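Cells were grown in 96-well plates and exposed to each compound for 48 hours at five concentrations; endpoints were interpolated linearly between bracketing concentrations, or set to the highest concentration if not reached. Abbreviation: GI50, concentration required for 50% inhibition of growth.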 Calls of active or inactive are those of the source. Cut-off read from the data, not from the text of the source: active = GI50 up to about 1.1 µM and inactive = higher.
Legend:
Assay in all cases: inhibition of tumour cell growth, NCI panel, 48 h
[1] = system: 786-0
[2] = system: A498
[3] = system: A549
[4] = system: ACHN
[5] = system: BT-549
[6] = system: CAKI-1
[7] = system: CCRF-CEM
[8] = system: COLO 205
[9] = system: DU-145
[10] = system: EKVX
[11] = system: HCC 2998
[12] = system: HCT-116
[13] = system: HCT-15
[14] = system: HL-60
[15] = system: HOP-62
[16] = system: HOP-92
[17] = system: HT-29
[18] = system: Hs-578T
[19] = system: IGROV-1
[20] = system: K562
[21] = system: KM12
[22] = system: LOX IMVI
[23] = system: M14
[24] = system: MCF7
[25] = system: MDA-MB-231
[26] = system: MDA-MB-435
[27] = system: MDA-N
[28] = system: MOLT-4
[29] = system: Malme-3M
[30] = system: NCI-H226
[31] = system: NCI-H23
[32] = system: NCI-H460
[33] = system: NCI-H522
[34] = system: NCI/ADR-RES
[35] = system: OVCAR-3
[36] = system: OVCAR-4
[37] = system: OVCAR-5
[38] = system: OVCAR-8
[39] = system: PC-3
[40] = system: RPMI-8226
[41] = system: RXF 393
[42] = system: SF-268
[43] = system: SF-295
[44] = system: SF-539
[45] = system: SK-MEL-28
[46] = system: SK-MEL-2
[47] = system: SK-MEL-5
[48] = system: SK-OV-3
[49] = system: SN12C
[50] = system: SNB-19
[51] = system: SNB-75
[52] = system: SR
[53] = system: SW-620
[54] = system: T47D
[55] = system: TK-10
[56] = system: U-251
[57] = system: UACC-257
[58] = system: UACC-62
[59] = system: UO-31

Measured: GI50

CC(=O)NC1C(O)C(O)C(CO)OC1n1ncc(=O)[nH]c1=O (configuration not stated)
inactive: [1] > 100 µM | [2] > 100 µM | [3] > 100 µM | [4] > 100 µM | [5] > 100 µM | [6] > 100 µM | [7] > 100 µM | [8] > 100 µM | [9] > 100 µM | [10] > 100 µM | [11] > 100 µM | [12] > 100 µM | [14] > 100 µM | [15] > 100 µM | [16] > 100 µM | [17] > 100 µM | [18] > 100 µM | [19] > 100 µM | [20] > 100 µM | [21] > 100 µM | [22] > 100 µM | [23] > 100 µM | [24] > 100 µM | [25] > 100 µM | [26] > 100 µM | [27] > 100 µM | [28] > 100 µM | [29] > 100 µM | [30] > 100 µM | [31] > 100 µM | [32] > 100 µM | [33] > 100 µM | [34] > 100 µM | [35] > 100 µM | [36] > 100 µM | [37] > 100 µM | [38] > 100 µM | [39] > 100 µM | [40] > 100 µM | [41] > 100 µM | [42] > 100 µM | [43] > 100 µM | [44] > 100 µM | [45] > 100 µM | [46] > 100 µM | [47] > 100 µM | [48] > 100 µM | [49] > 100 µM | [50] > 100 µM | [51] > 100 µM | [52] > 100 µM | [53] > 100 µM | [54] > 100 µM | [55] > 100 µM | [56] > 100 µM | [57] > 100 µM | [58] > 100 µM | [59] > 100 µM
> 100 µM: [13]

O=C(NNC(=S)Nc1ccccc1)c1ccccc1Nc1ccccc1C(=O)NNC(=S)Nc1ccccc1
inactive: [1] 13.8 µM | [2] 42.8 µM | [3] 27.2 µM | [4] 31.2 µM | [5] 17.4 µM | [6] 48.2 µM | [7] 76.4 µM | [8] 22.1 µM | [9] 23.3 µM | [10] 21.1 µM | [11] 16.9 µM | [12] 17.7 µM | [14] 35.5 µM | [15] 21.7 µM | [16] 8.53 µM | [17] 28.5 µM | [18] 13.1 µM | [19] 8.24 µM | [20] 74 µM | [21] 42 µM | [22] 12.9 µM | [23] 19 µM | [24] 23.8 µM | [25] 21.7 µM | [26] 20.9 µM | [27] 29.1 µM | [28] 29.6 µM | [29] 19.8 µM | [30] 24.5 µM | [31] 18.9 µM | [32] 20 µM | [33] 16.5 µM | [34] 87.3 µM | [35] 19.6 µM | [36] 26.7 µM | [37] 16.8 µM | [38] 20 µM | [39] 23 µM | [40] 18.6 µM | [41] 19.2 µM | [42] 17 µM | [43] 20.9 µM | [44] 24.1 µM | [45] 33 µM | [46] 19.6 µM | [47] 26.3 µM | [48] 30.1 µM | [49] 19.6 µM | [50] 17.7 µM | [51] 22.4 µM | [52] 43.6 µM | [53] 40.9 µM | [54] 27.7 µM | [55] 25.3 µM | [56] 19.5 µM | [57] 19.1 µM | [58] 13.1 µM | [59] 17.7 µM
29.5 µM: [13]

CCC1(CC)N=C(C(F)(F)F)c2cc(C(=O)C(F)(F)F)c3ccccc3c2N1
inactive: [1] 3.87 µM | [2] 15.6 µM | [3] 9.71 µM | [4] 4.3 µM | [5] 5.87 µM | [6] 3.99 µM | [7] 3.67 µM | [8] 14 µM | [9] 3.6 µM | [10] 10.2 µM | [11] 4.39 µM | [12] 3.44 µM | [14] 2.95 µM | [15] 5.19 µM | [16] 2.67 µM | [17] 3.7 µM | [18] 5.83 µM | [19] 3.76 µM | [20] 3.72 µM | [21] 3.99 µM | [22] 3.64 µM | [23] 4.89 µM | [24] 3.77 µM | [25] 3.44 µM | [26] 3.58 µM | [27] 3.15 µM | [28] 2.82 µM | [29] 11.4 µM | [30] 6.5 µM | [31] 3.24 µM | [32] 4.16 µM | [33] 3.94 µM | [34] 4.14 µM | [35] 2.73 µM | [36] 4.57 µM | [37] 13.4 µM | [38] 3.66 µM | [39] 3.3 µM | [40] 2.58 µM | [41] 3.15 µM | [42] 8.43 µM | [43] 3.14 µM | [44] 17.9 µM | [45] 8.26 µM | [46] 2.81 µM | [47] 1.77 µM | [48] 17.7 µM | [49] 3.41 µM | [50] 5.15 µM | [51] 4.2 µM | [52] 2.98 µM | [53] 4.78 µM | [54] 3.75 µM | [55] 8.63 µM | [56] 3.64 µM | [57] 7.8 µM | [58] 3.36 µM | [59] 3.3 µM
4.22 µM: [13]

Source: ChEMBL document CHEMBL1201862, “PubChem BioAssay data set” (2004)
